Measurements from patent US10968225B2, “Compounds and compositions for the treatment of cystic fibrosis” (Fondazione Istituto Italiano Di Tecnologia, priority 2017, dated 2021).

Assays:
Assay type in all cases: cell-based
F508del-CFTR [1] = biological target: T1, F508del-CFTR (Homo sapiens, UniProt P13569, DEL508-508); assay: Short-circuit current recordings on human bronchial epithelial cells; set-up: Human bronchial epithelial (HBE) cells obtained from CF patients (F508del/F508del genotype); endogenous in cells; host or cells: primary human bronchial epithelial cells from CF patients, F508del/F508del; conditions: compounds tested at 1.0 µM; HBE cells from CF patients (F508del/F508del); 24 hrs treatment; CPT-cAMP plus VX-770 minus CFTRinh-172
Description: Short-Circuit Current Recordings on Human Bronchial Epithelial Cells
Human bronchial epithelial (HBE) cells obtained from CF patients (F508del/F508del genotype) were plated on Snapwell inserts (Code 3801, Corning Life Sciences) at a density of 500,000 cells per insert. Cells were cultured for two weeks in a differentiating medium whose compositions has been previously described (Scudieri et al., J Physiol 590:6141-6155, 2012). For the first week, the medium was kept on both apical and basolateral sides of inserts (submerged condition). For the second week, the apical medium was removed (air-liquid condition, ALC). To test the activity of correctors, cells were treated for 24 hrs with compounds dissolved in the basolateral medium. After treatment, Snapwell inserts carrying differentiated bronchial epithelia were mounted in a vertical chamber resembling an Ussing system with internal fluid circulation. Both apical and basolateral hemichambers were filled with 5 mL of a Krebs bicarbonate solution containing (in mM): 126 NaCl, 0.38 KH2PO4, 2.13 K2HPO4, 1 MgSO4, 1 CaCl2, 24 NaHCO3, and 10 glucose. Both sides were continuously bubbled with a gas mixture containing 5% CO2-95% air and the temperature of the solution was kept at 37° C. The transepithelial voltage was short-circuited with a voltage-clamp (DVC-1000, World Precision Instruments) connected to the apical and basolateral chambers via Ag/AgCl electrodes and agar bridges (1 M KCl in 1% agar). The offset between voltage electrodes and the fluid resistance were canceled before experiments. The short-circuit current was recorded with a PowerLab 4/25 (ADInstruments) analogical to digital converter connected to a Macintosh computer. […] The difference between the current measured with CPT-cAMP plus potentiator and the current remaining after CFTRinh-172 treatment ([…]ICFTR) was taken as the parameter reflecting F508del-CFTR expression in the apical membrane.
Activities of selected compounds on HBE cells tested at 1.0 µM (expressed as […]ICFTR) are illustrated in table 3 wherein +: […]ICFTR<2.0 µA; ++: 2 μA<[…]ICFTR<3.0 μA; +++: […]ICFTR>3.0 µA.

mutant CFTR = biological target: T2, mutant CFTR (Homo sapiens, UniProt P13569, DEL508-508); assay: Fluorescence (HS-YFP) assay for CFTR activity, corrector assay; conditions: CFBE41o- and FRT cells with stable expression of mutant CFTR, read-out: activity (EC50)
T2 construct: expressed in transfected cells

F508del-CFTR [2] = biological target: T1, F508del-CFTR; assay: Transepithelial electrical conductance (TEEC) in FRT cells; set-up: expressed in transfected cells; host or cells: FRT cells; conditions: compounds tested at 5.0 µM; FRT cells expressing F508del-CFTR; 24 hrs incubation; forskolin and genistein stimulation minus PPQ-102 block
Description: Transepithelial Electrical Conductance (TEEC)
FRT cells expressing F508del-CFTR were plated on HTS Transwell-24 well permeable supports (Code 3379, Corning Life Sciences) at a density of 200,000 cells/well. After six days, cells were incubated for 24 hrs with test correctors, vehicle, or VX-809. Compounds were dissolved in both basolateral (800 μL) and apical (300 μL) culture medium. After treatment, the culture medium was removed and replaced on both sides with a saline solution containing (in mM): 130 NaCl, 2.7 KCl, 1.5 KH2PO4, 1 CaCl2, 0.5 MgCl2, 10 glucose, 10 Na-Hepes (pH 7.4). The basolateral and apical side received 800 μL and 100 μL, respectively. The 24-well tray with cells was placed on a block heater (SBH 130D, Stuart) to keep the temperature at 37° C. during the entire experiment. After 10 min, the basal transepithelial electrical resistance (TEER) across each layer of FRT cells was measured with a STX100C electrode pair connected to an EVOM2 voltohmeter (World Precision Instruments). To stimulate F508del-CFTR, each well received (apical side) 50 μL of saline solution containing 60 μM forskolin and 150 μM genistein (final concentrations: 20 μM forskolin, 50 μM genistein). Forskolin was also pipetted in the basolateral medium to obtain the 20 μM concentration. After 10 min TEER was measured again in each well. To block F508del-CFTR function, the inhibitor PPQ-102 was used at the final concentration of 30 μM. To achieve the desired concentration, 75 μL of the apical solution in each well was replaced with an equal volume of saline solution containing 20 μM forskolin, 50 μM genistein, and 60 μM PPQ-102. After further 10 min, the transepithelial electrical resistance was measured. All values of TEER were converted to transepithelial electrical conductance (TEEC) using the formula TEEC=1/TEER. The parameter to indicate activity of F508del-CFTR in each well (ΔTEEC) was calculated from the difference in TEEC measured after maximal stimulation of F508del-CFTR with forskolin and genistein and after block with PPQ-102.
Corrector activities obtained on selected compounds tested at 5.0 µM (expressed as ΔTEEC values) are illustrated in table 2, wherein +: ΔTEEC<2000 µS; ++: 2000 µS<ΔTEEC<3000[…]S; +++: ΔTEEC>3000 µS.

T2 sequence (P13569 with tags, fused parts or gaps DEL508-508): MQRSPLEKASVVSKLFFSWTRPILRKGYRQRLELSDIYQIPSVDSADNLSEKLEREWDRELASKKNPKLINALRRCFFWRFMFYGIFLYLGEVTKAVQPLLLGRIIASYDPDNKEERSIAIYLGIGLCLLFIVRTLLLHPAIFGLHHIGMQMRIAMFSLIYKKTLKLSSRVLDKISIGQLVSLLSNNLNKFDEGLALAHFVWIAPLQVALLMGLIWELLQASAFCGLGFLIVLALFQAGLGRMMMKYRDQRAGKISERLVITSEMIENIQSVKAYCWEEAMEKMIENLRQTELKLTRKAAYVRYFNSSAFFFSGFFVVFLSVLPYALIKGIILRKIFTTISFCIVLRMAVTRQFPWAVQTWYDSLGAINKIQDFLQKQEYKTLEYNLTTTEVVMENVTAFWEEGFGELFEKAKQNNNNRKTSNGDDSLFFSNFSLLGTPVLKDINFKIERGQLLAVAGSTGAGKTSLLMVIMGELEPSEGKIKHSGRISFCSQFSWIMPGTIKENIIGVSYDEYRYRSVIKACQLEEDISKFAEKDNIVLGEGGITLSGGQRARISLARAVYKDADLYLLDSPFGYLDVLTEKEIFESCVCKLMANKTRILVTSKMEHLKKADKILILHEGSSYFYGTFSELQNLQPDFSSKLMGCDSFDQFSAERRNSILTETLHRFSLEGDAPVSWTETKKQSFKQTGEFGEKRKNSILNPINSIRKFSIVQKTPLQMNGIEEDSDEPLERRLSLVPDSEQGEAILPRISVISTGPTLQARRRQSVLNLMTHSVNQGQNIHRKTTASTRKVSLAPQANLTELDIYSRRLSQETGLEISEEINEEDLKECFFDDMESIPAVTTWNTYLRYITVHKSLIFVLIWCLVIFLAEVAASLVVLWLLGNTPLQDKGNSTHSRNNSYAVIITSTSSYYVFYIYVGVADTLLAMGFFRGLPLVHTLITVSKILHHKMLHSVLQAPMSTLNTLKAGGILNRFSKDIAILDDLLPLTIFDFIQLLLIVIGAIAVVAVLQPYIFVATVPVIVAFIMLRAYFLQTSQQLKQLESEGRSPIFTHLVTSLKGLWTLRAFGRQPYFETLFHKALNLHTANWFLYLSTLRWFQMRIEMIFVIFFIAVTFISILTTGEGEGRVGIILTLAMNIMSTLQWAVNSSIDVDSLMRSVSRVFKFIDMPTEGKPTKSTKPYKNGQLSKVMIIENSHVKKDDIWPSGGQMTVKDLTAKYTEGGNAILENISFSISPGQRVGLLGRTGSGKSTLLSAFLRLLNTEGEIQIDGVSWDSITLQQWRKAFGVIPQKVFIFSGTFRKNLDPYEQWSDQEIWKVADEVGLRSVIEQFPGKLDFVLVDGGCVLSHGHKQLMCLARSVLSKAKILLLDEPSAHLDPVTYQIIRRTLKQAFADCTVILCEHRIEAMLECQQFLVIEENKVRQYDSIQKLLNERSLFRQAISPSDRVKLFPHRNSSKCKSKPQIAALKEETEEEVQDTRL
T1 sequence (P13569 with tags, fused parts or gaps DEL508-508): as above

SMILES | activity on HBE cells (expressed as […]ICFTR) (F508del-CFTR [1]) | EC50 (mutant CFTR) | Corrector activity (expressed as ΔTEEC values) (F508del-CFTR [2])
CN(C(=O)c1cccc(-n2nc(C(F)(F)F)c3c2CC2CCC3N2C(=O)OC(C)(C)C)c1)c1ccc2c(c1)OCO2 (racemic) [Compound 018, tert-Butyl 1-(3-(benzo[d][1,3]dioxol-5-yl(methyl)carbamoyl)phenyl)-3-(trifluoromethyl)-1,4,5,6,7,8-hexahydro-4,7-epiminocyclohepta[c]pyrazole-9-carboxylate] | +++ ([…]ICFTR>3.0 µA) | < 1000 nM | +++ (ΔTEEC>3000 µS)
CN1CCc2c(c(C(F)(F)F)nn2-c2cccc(C(=O)N(C)c3ccc4c(c3)OCO4)c2)C1 [Compound 003, N-(1,3-Benzodioxol-5-yl)-N-methyl-3-[5-methyl-3-(trifluoromethyl)-6,7-dihydro-4H-pyrazolo[4,3-c]pyridin-1-yl]benzamide] | ++ (2 μA<[…]ICFTR<3.0 μA) | < 1000 nM | ++ (2000 µS<ΔTEEC<3000[…]S)
CN(C(=O)c1cccc(-n2nc(C(F)(F)F)c3c2CCN(C(=O)Nc2ccccc2)C3)c1)c1ccc2c(c1)OCO2 [Compound 010, 1-[3-[1,3-Benzodioxol-5-yl(methyl)carbamoyl]phenyl]-N-phenyl-3-(trifluoromethyl)-6,7-dihydro-4H-pyrazolo[4,3-c] pyridine-5-carboxamide] | ++ (2 μA<[…]ICFTR<3.0 μA) | < 1000 nM | ++ (2000 µS<ΔTEEC<3000[…]S)
CN(C(=O)c1cccc(-n2nc(C(F)(F)F)c3c2CCN(C(=O)C(C)(C)C)C3)c1)c1ccc2c(c1)OCO2 [Compound 011, N-(1,3-Benzodioxol-5-yl)-3-[5-(2,2-dimethylpropanoyl)-3-(trifluoromethyl)-6,7-dihydro-4H-pyrazolo[4,3-c]pyridin-1-yl]-N-methyl-benzamide] | ++ (2 μA<[…]ICFTR<3.0 μA) | < 1000 nM | ++ (2000 µS<ΔTEEC<3000[…]S)
CN(C(=O)c1cccc(-n2nc(C(F)(F)F)c3c2CCN(Cc2ccccc2)C3)c1)c1ccc2c(c1)OCO2 [Compound 012, N-(1,3-Benzodioxol-5-yl)-3-[5-benzyl-3-(trifluoromethyl)-6,7-dihydro-4H-pyrazolo[4,3-c]pyridin-1-yl]-N-methyl-benzamide] | + ([…]ICFTR<2.0 µA) | < 1000 nM | ++ (2000 µS<ΔTEEC<3000[…]S)
COC(=O)c1cccc(CN2CCc3c(c(C(F)(F)F)nn3-c3cccc(C(=O)N(C)c4ccc5c(c4)OCO5)c3)C2)c1 [Compound 020, Methyl 3-[[1-[3-[1,3-benzodioxol-5-yl(methyl)carbamoyl]phenyl]-3-(trifluoromethyl)-6,7-dihydro-4H-pyrazolo[4,3-c]pyridin-5-yl]methyl]benzoate] | ++ (2 μA<[…]ICFTR<3.0 μA) | < 1000 nM | +++ (ΔTEEC>3000 µS)
CN(C(=O)c1cccc(-n2nc(C(F)(F)F)c3c2CCN(C2CCC2)C3)c1)c1ccc2c(c1)OCO2 [Compound 032, N-(1,3-Benzodioxol-5-yl)-3-[5-cyclobutyl-3-(trifluoromethyl)-6,7-dihydro-4H-pyrazolo[4,3-c]pyridin-1-yl]-N-methyl-benzamide] | ++ (2 μA<[…]ICFTR<3.0 μA) | < 1000 nM | ++ (2000 µS<ΔTEEC<3000[…]S)
